Measured values published in patent US20240002365A1, “PYRIDAZINE AND 1,2,4-TRIAZINE DERIVATIVES AS FGFR KINASE INHIBITORS” (BETA PHARMA, INC., priority 2020, published 2024).
“And” between values parts separate entries of the source, which are not always exact repeats. Equal values may be shown once. Read-outs that look alike come from different tables or passages of the source.

Experiments:
FGFR1 [1] = target: T1, FGFR1 (Homo sapiens (Human), UniProt P11362); experiment: RBC NanoBRET Assay for Target Engagement in HEK293 cells transfected with FGFR1-NanoLuc Fusion vector; assay type: cell-based; conditions: 1 hour, tracer K5 1 μM
T1 sequence (P11362 22-822): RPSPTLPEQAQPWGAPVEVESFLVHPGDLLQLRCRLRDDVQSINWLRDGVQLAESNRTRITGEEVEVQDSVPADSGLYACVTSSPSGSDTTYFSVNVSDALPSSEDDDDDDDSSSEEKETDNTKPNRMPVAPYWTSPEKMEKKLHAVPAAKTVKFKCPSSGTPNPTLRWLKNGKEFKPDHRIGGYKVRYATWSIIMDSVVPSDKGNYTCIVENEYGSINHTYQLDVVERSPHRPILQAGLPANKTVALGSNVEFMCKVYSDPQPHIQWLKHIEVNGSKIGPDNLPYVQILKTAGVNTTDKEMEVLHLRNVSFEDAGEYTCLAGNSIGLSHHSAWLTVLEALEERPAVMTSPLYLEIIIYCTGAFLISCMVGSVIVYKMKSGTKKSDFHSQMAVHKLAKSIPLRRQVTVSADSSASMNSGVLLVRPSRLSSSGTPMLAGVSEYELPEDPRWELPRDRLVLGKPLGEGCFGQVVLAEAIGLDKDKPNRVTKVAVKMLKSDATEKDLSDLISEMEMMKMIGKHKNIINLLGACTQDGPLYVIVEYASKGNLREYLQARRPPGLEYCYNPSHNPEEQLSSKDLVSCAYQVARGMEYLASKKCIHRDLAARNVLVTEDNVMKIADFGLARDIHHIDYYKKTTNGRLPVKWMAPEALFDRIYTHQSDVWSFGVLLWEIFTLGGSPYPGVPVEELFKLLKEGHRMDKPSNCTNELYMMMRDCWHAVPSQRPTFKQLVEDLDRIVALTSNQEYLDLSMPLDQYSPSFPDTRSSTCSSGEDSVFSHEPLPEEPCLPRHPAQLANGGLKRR
Protocol: Cellular Assay. The RBC NanoBRET Assay for Target Engagement was performed by Reaction Biology Corporation, 1 Great Valley Parkway, Suite 2 Malvern, PA 19355, USA. The assay was conducted in HEK293 cells transiently transfected with FGFR1-NanoLuc Fusion vector. The HEK293 cells (ATCC) were transfected with 1 μg of FGFR1-NanoLuc Fusion vector in 384-well format and the transfected cells were subsequently treated with the test compounds (starting at 10 μM, 10-dose with 3-fold dilution) for 1 hour using CTx-0294885 as the reference standard and K5 (1 μM) was used as the tracer. FGFR1 target engagement was measured and the curve fits were performed only when % NanoBret signal at the highest concentration of compounds was less than 55%.

[2] = Pharmacokinetics assay in male CD-1 mice (plasma, LC-MS/MS, non-compartmental analysis); assay type: in vivo; conditions: for MRT inf: read-out: MRT0-inf; for MRT last: read-out: MRT0-last;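 for Plasma concentration: plasma concentration of test compound at each sampling time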
Protocol: Pharmacokinetics Assay. A pharmacokinetics assay of Example 1 was performed by WuXi AppTec Inc., 6 Cedarbrook Drive, Cranbury, NJ 08512 USA. This study was conducted in 6 to 8-week-old male CD-1 mice (Hilltop Laboratories). Animals were group housed during acclimation and throughout the study. The animal room environment was controlled according to facility operation (temperature: 20 to 26° C.; relative humidity: 30 to 70%; lighting: 12 hour light/dark cycle). Temperature, relative humidity, and lighting were monitored by PointView Environmental Monitoring System. Animals were fed certified pellet diet (Certified Rodent Diet #5002, LabDiet). The diet lot number and specifications were recorded in study notebook and archived at WuXi AppTec. Water (reverse osmosis) was provided to the animals ad libitum. The animals were fasted overnight and food was returned 4 hours post-dose.
An appropriate amount of Example compound 1 above (N^1-(3,5-Dimethoxyphenyl)-N^2-isopropyl-N^1-(3-(1-methyl-1H-pyrazol-4-yl)cinnolin-6-yl)ethane-1,2-diamine) was accurately weighed and mixed with an appropriate volume of 20% hydroxypropyl-(3-cyclodextrin; 80% H2O (w/v) to give either a clear solution or uniform suspension (PO only). Blood samples of about 30-40 μL were collected from peripheral veins at pre-defined time points. into pre-chilled micro-tubes containing K2EDTA as anti-coagulant and kept on ice until centrifugation. The blood samples were centrifuged at 4° C., 3000g for 15 min within half an hour of collection. Plasma was collected into 96-well plate(s), quickly frozen on dry ice and stored at −70±10° C. until LC-MS/MS analysis. The LC-MS/MS analytical method is described as follows:
The pharmacokinetics of Example Compound 1 were analyzed using the Phoenix WinNonlin software (version 6.3) based on the non-compartmental analysis model and the results are shown below in FIGS. 1 and 2 and in Tables 1 and 2. M7, M8, M9, etc. refer to particular mouse subjects used in the study.

FGFR1 [3] = target: T1, FGFR1; experiment: RBC HotSpot Kinase Assay (33P-ATP filter-binding); assay type: biochemical; conditions: 10 μM ATP
[4] = IV 1.00 mg/kg, mouse, individual mice M7-M9
[5] = PO 10.0 mg/kg, mouse, individual mice M10-M12
[6] = male, CD-1, mouse, plasma, iv, 1 mg/kg, IV 1.00 mg/kg, individual mice M7-M9
[7] = male, CD-1, mouse, plasma, iv, 1 mg/kg, IV 1.00 mg/kg, mean
[8] = male, CD-1, mouse, plasma, po, 10 mg/kg, PO 10.0 mg/kg, mean

IC50 (FGFR1 [1]): 9.5 nM
Plasma concentration ([2]; IV 1.00 mg/kg, mouse, 299 s, individual mice M7-M9): 294 ng/mL and 444 ng/mL
Plasma concentration ([2]; IV 1.00 mg/kg, mouse, 0.250 h, individual mice M7-M9): 197 ng/mL and 143 ng/mL and 292 ng/mL
Plasma concentration ([2]; IV 1.00 mg/kg, mouse, 0.500 h, individual mice M7-M9): 80.8 ng/mL and 86.8 ng/mL and 206 ng/mL
Plasma concentration ([2]; IV 1.00 mg/kg, mouse, 1.00 h, individual mice M7-M9): 58.0 ng/mL and 29.3 ng/mL and 86.4 ng/mL
Plasma concentration ([2]; IV 1.00 mg/kg, mouse, 2.00 h, individual mice M7-M9): 15.2 ng/mL and 8.83 ng/mL and 17.9 ng/mL
Plasma concentration ([2]; IV 1.00 mg/kg, mouse, 4.00 h, individual mice M7-M9): 3.17 ng/mL and 3.64 ng/mL
Plasma concentration ([2]; IV 1.00 mg/kg, mouse, 8.00 h, individual mice M7-M9): 1.73 ng/mL and 1.42 ng/mL
Plasma concentration ([2]; IV 1.00 mg/kg, mouse, 24.0 h, individual mice M7-M9): 2.21 ng/mL and BQL
AUC0-inf [2, 4]: 197 ng·h/mL and 305 ng·h/mL
AUC0-last [2, 4]: 188 ng·h/mL and 303 ng·h/mL
AUCExtra [2, 4]: 1.15% and 4.42% and 0.637%
AUMCExtra [2, 4]: 10.6% and 26.9% and 6.89%
C0 [2, 4]: 421 ng/mL and 547 ng/mL
Cl [2, 4]: 84.8 mL/min/kg and 54.7 mL/min/kg
MRT0-inf [2, 4]: 2.80 h and 4.58 h and 0.866 h
MRT0-last [2, 4]: 2.53 h and 3.50 h and 0.812 h
T1/2 [2, 4]: 1.34 h and 2.72 h and 0.948 h
Tlast [2, 4]: 24.0 h (2×) and 8.00 h
Vdss [2, 4]: 12.2 L/kg and 23.3 L/kg and 2.84 L/kg
AUCExtra ([2]; IV 1.00 mg/kg, mouse, mean): 2.07%
AUMCExtra ([2]; IV 1.00 mg/kg, mouse, mean): 14.8%
Tlast ([2]; IV 1.00 mg/kg, mouse, mean): 18.7 h
Plasma concentration ([2]; PO 10.0 mg/kg, mouse, 0.167 h, individual mice M10-M12): 43.6 ng/mL and 46.8 ng/mL and 147 ng/mL
Plasma concentration ([2]; PO 10.0 mg/kg, mouse, 0.500 h, individual mice M10-M12): 71.0 ng/mL and 102 ng/mL and 269 ng/mL
Plasma concentration ([2]; PO 10.0 mg/kg, mouse, 1.00 h, individual mice M10-M12): 47.6 ng/mL and 51.9 ng/mL and 170 ng/mL
Plasma concentration ([2]; PO 10.0 mg/kg, mouse, 2.00 h, individual mice M10-M12): 14.1 ng/mL and 29.7 ng/mL and 89.5 ng/mL
Plasma concentration ([2]; PO 10.0 mg/kg, mouse, 4.00 h, individual mice M10-M12): 12.5 ng/mL and 9.57 ng/mL and 22.8 ng/mL
Plasma concentration ([2]; PO 10.0 mg/kg, mouse, 6.00 h, individual mice M10-M12): 20.7 ng/mL and 7.02 ng/mL and 4.44 ng/mL
Plasma concentration ([2]; PO 10.0 mg/kg, mouse, 8.00 h, individual mice M10-M12): 13.2 ng/mL and 4.84 ng/mL and 1.77 ng/mL
Plasma concentration ([2]; PO 10.0 mg/kg, mouse, 24.0 h, individual mice M10-M12): 7.49 ng/mL and 1.56 ng/mL and BQL
AUCExtra [2, 5]: 31.7% and 8.42% and 0.593%
AUMCExtra [2, 5]: 69.7% and 41.4% and 3.41%
Cmax [2, 5]: 71.0 ng/mL and 102 ng/mL and 269 ng/mL
MRT0-inf [2, 5]: 20.3 h and 7.47 h and 1.65 h
MRT0-last [2, 5]: 9.01 h and 4.78 h and 1.60 h
T1/2 [2, 5]: 14.3 h and 8.81 h and 1.03 h
Tlast [2, 5]: 24.0 h (2×) and 8.00 h
AUCExtra ([2]; PO 10.0 mg/kg, mouse, mean): 13.6%
AUMCExtra ([2]; PO 10.0 mg/kg, mouse, mean): 38.2%
Tlast ([2]; PO 10.0 mg/kg, mouse, mean): 18.7 h
concentration at 0.083 h ([2]; male, CD-1, mouse, plasma, iv, 1 mg/kg, IV 1.00 mg/kg, 299 s, individual mice M7-M9): 341 ng/mL
concentration at 0.083 h ([2]; male, CD-1, mouse, plasma, iv, 1 mg/kg, IV 1.00 mg/kg, 299 s, mean): 360 ng/mL
concentration at 0.25 h ([2]; male, CD-1, mouse, plasma, iv, 1 mg/kg, IV 1.00 mg/kg, 0.250 h, mean): 211 ng/mL
concentration at 0.5 h ([2]; male, CD-1, mouse, plasma, iv, 1 mg/kg, IV 1.00 mg/kg, 0.500 h, mean): 125 ng/mL
concentration at 1 h ([2]; male, CD-1, mouse, plasma, iv, 1 mg/kg, IV 1.00 mg/kg, 1.00 h, mean): 57.9 ng/mL
concentration at 2 h ([2]; male, CD-1, mouse, plasma, iv, 1 mg/kg, IV 1.00 mg/kg, 2.00 h, mean): 14 ng/mL
concentration at 4 h ([2]; male, CD-1, mouse, plasma, iv, 1 mg/kg, IV 1.00 mg/kg, 4.00 h, individual mice M7-M9): 3.72 ng/mL
concentration at 4 h ([2]; male, CD-1, mouse, plasma, iv, 1 mg/kg, IV 1.00 mg/kg, 4.00 h, mean): 3.51 ng/mL
concentration at 8 h ([2]; male, CD-1, mouse, plasma, iv, 1 mg/kg, IV 1.00 mg/kg, 8.00 h, individual mice M7-M9): 1.65 ng/mL
concentration at 8 h ([2]; male, CD-1, mouse, plasma, iv, 1 mg/kg, IV 1.00 mg/kg, 8.00 h, mean): 1.6 ng/mL
concentration at 24 h ([2]; male, CD-1, mouse, plasma, iv, 1 mg/kg, IV 1.00 mg/kg, 24.0 h, individual mice M7-M9): 1.36 ng/mL
concentration at 24 h ([2]; male, CD-1, mouse, plasma, iv, 1 mg/kg, IV 1.00 mg/kg, 24.0 h, mean): 1.79 ng/mL
AUC(0-t) [2, 6]: 226 ng·h/mL
clearance [2, 6]: 73 mL/min/kg
AUC0-inf ([2]; male, CD-1, mouse, plasma, iv, 1 mg/kg, IV 1.00 mg/kg, individual mice M7-M9, read-out: AUC0-inf): 228 ng·h/mL
C0 ([2]; male, CD-1, mouse, plasma, iv, 1 mg/kg, IV 1.00 mg/kg, individual mice M7-M9, read-out: C0): 448 ng/mL
AUC(0-t) [2, 7]: 239 ng·h/mL
clearance [2, 7]: 70.8 mL/min/kg
half-life [2, 7]: 100 min
AUC0-inf ([2]; male, CD-1, mouse, plasma, iv, 1 mg/kg, IV 1.00 mg/kg, mean, read-out: AUC0-inf): 243 ng·h/mL
C0 ([2]; male, CD-1, mouse, plasma, iv, 1 mg/kg, IV 1.00 mg/kg, mean, read-out: C0): 472 ng/mL
MRT inf [2, 7]: 2.75 h
MRT last [2, 7]: 2.28 h
Vd ([2]; male, CD-1, mouse, plasma, iv, 1 mg/kg, IV 1.00 mg/kg, mean, read-out: Vdss): 12.8 L/kg
concentration at 0.167 h ([2]; male, CD-1, mouse, plasma, po, 10 mg/kg, PO 10.0 mg/kg, 0.167 h, mean): 79.1 ng/mL
concentration at 0.5 h ([2]; male, CD-1, mouse, plasma, po, 10 mg/kg, PO 10.0 mg/kg, 0.500 h, mean): 147 ng/mL
concentration at 1 h ([2]; male, CD-1, mouse, plasma, po, 10 mg/kg, PO 10.0 mg/kg, 1.00 h, mean): 89.8 ng/mL
concentration at 2 h ([2]; male, CD-1, mouse, plasma, po, 10 mg/kg, PO 10.0 mg/kg, 2.00 h, mean): 44.4 ng/mL
concentration at 4 h ([2]; male, CD-1, mouse, plasma, po, 10 mg/kg, PO 10.0 mg/kg, 4.00 h, mean): 15 ng/mL
concentration at 6 h ([2]; male, CD-1, mouse, plasma, po, 10 mg/kg, PO 10.0 mg/kg, 6.00 h, mean): 10.7 ng/mL
concentration at 8 h ([2]; male, CD-1, mouse, plasma, po, 10 mg/kg, PO 10.0 mg/kg, 8.00 h, mean): 6.6 ng/mL
concentration at 24 h ([2]; male, CD-1, mouse, plasma, po, 10 mg/kg, PO 10.0 mg/kg, 24.0 h, mean): 4.53 ng/mL
AUC(0-t) [2, 8]: 330 ng·h/mL
half-life [2, 8]: 483 min
AUC0-inf ([2]; male, CD-1, mouse, plasma, po, 10 mg/kg, PO 10.0 mg/kg, mean, read-out: AUC0-inf): 389 ng·h/mL
Cmax ([2]; male, CD-1, mouse, plasma, po, 10 mg/kg, PO 10.0 mg/kg, mean, read-out: Cmax): 147 ng/mL
MRT inf [2, 8]: 9.81 h
MRT last [2, 8]: 5.13 h
bioavailability ([2]; male, CD-1, plasma, PO 10.0 mg/kg vs IV 1.00 mg/kg, mouse, calculated from AUC): 13.8%
Tmax ([2]; male, CD-1, plasma, PO 10.0 mg/kg, mouse, individual mice M10-M12): 30 min
IC50 (FGFR1 [3]): 7.3 nM
Structure (SMILES): COc1cc(OC)cc(N(CCNC(C)C)c2ccc3nnc(-c4cnn(C)c4)cc3c2)c1 [Example 1, N^1-(3,5-Dimethoxyphenyl)-N^2-isopropyl-N^1-(3-(1-methyl-1H-pyrazol-4-yl)cinnolin-6-yl)ethane-1,2-diamine]
AUC0-inf [2, 5]: 488 ng·h/mL and 235 ng·h/mL and 443 ng·h/mL
AUC0-last [2, 5]: 333 ng·h/mL and 216 ng·h/mL and 441 ng·h/mL
